Data taken from publication PMC5078989, “Targeted inhibition of the COP9 signalosome for treatment of cancer” (Nature Communications, 2016).

Test system: panel of cancer cell lines
Assay: Cell viability (CellTiter-Glo) dose-response across cancer cell line panel;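 as to EC50: after 72 h compound incubation with CellTiter-Glo ATP readout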
Type: cell-based, human
Settings: for EC50: Homo sapiens
Text: Next, we explored the effect of CSN5 inhibition on the viability of cancer cells. To obtain a comprehensive picture, we generated dose–response curves with a CSN5 inhibitor across more than 500 cancer cell lines in a previously described standardized setting[47] (Supplementary Data 1).
A standardized CellTiter-Glo Assay (Promega #G7570) based on the quantification of ATP was applied according to the manufacturer's protocol to measure the amount of viable cells in culture. In brief, cells were seeded into 384-well plates at optimal density for each cell line. After 4 h, compounds were added at different concentrations in growth medium and incubated for another 72 h in a humidifying chamber at 37 °C and 5% CO2. […] EC50 values were calculated from the plot of percentage of inhibition versus inhibitor concentration using the nonlinear regression analysis software Origin 7.5SR6 (OriginLab Corp.).

Compound: COCc1ccccc1NCc1ccc([C@@H]2[C@H](O)CCCc3cncn32)c(-c2ccccc2Cl)c1 [CSN5i-2e, (5R,6R)-5-(2′-chloro-5-(((2-(methoxymethyl)phenyl)amino)methyl)-[1,1′-biphenyl]-2-yl)-6,7,8,9-tetrahydro-5H-imidazo[1,5-a]azepin-6-ol]
- EC50 (SNU-685 cells): > 30 µM
- EC50 (SNU-738 cells): 14.6 µM
- EC50 (SNU-761 cells): 11.3 µM
- EC50 (SNU-1040 cells): 18.9 µM
- EC50 (SNU-1079 cells): 13.1 µM
- EC50 (SNU-C1, SNU-C1 cells): 17.8 µM
- EC50 (SNU-C2A cells): 10.7 µM
- EC50 (SNU-C4, SNU-C4 cells): 13.7 µM
- EC50 (SNU-C5 cells): 8.36 µM
- EC50 (SR-786, SR-786 cells): 11.4 µM
- EC50 (SU-DHL10, SU-DHL-10 cells): 5.76 µM
- EC50 (SU-DHL-4, SU-DHL-4 cells): 10.9 µM
- EC50 (SU-DHL-5, SU-DHL-5 cells): 4.35 µM
- EC50 (SU-DHL-6, SU-DHL-6 cells): 6.01 µM
- EC50 (SU-DHL-8, SU-DHL-8 cells): 6.55 µM
- EC50 (SU.86.86, SU.86.86 cells): 10.8 µM
- EC50 (SUM44PE cells): 26.1 µM
- EC50 (SUM52PE, SUM52PE cells): 3.38 µM
- EC50 (SUM149PT, SUM149PT cells): 10.6 µM
- EC50 (SUM-159-PT, SUM159PT cells): 11.1 µM
- EC50 (SUP-T1, SUP-T1 cells): 10.1 µM
- EC50 (SW48, SW48 cells): 12.2 µM
- EC50 (SW480, SW480 cells): 9.61 µM
- EC50 (SW982, SW982 cells): 11.4 µM
- EC50 (SW1088, SW 1088 cells): 10.6 µM
- EC50 (SW1271, SW 1271 cells): 18.7 µM
- EC50 (SW1573, SW 1573 cells): 9.37 µM
- EC50 (SW1783, SW 1783 cells): > 30 µM
- EC50 (SW-403, SW403 cells): 23.8 µM
- EC50 (SW-620, SW620 cells): 21.8 µM
- EC50 (SYO-1 cells): 11.2 µM
- EC50 (Sq-1 cells): 11.8 µM
- EC50 (T3M4, T3M-4 cells): 18.8 µM
- EC50 (T47D, T-47D cells): 7.39 µM
- EC50 (TANOUE cells): 6.4 µM
- EC50 (TC-71, TC-71 cells): 9.61 µM
- EC50 (TCC-PAN2 cells): 28.9 µM
- EC50 (TE-6, TE-6 cells): 14 µM
- EC50 (TE-11, TE-11 cells): 10.7 µM
- EC50 (TE-15, TE-15 cells): 15.1 µM
- EC50 (TF-1, TF-1 cells): 8.75 µM
- EC50 (THP-1, THP-1 cells): 5.46 µM
- EC50 (TYK-nu cells): 10.6 µM
- EC50 (U266B1 cells): 9.53 µM
- EC50 (U-118-MG, U-118 MG cells): 25.3 µM
- EC50 (U-937, U-937 cells): 7.39 µM
- EC50 (UACC-62, UACC-62 cells): 13.9 µM
- EC50 (UACC-257, UACC-257 cells): 11.2 µM
- EC50 (UCH1, UCH-1 cells): 14.7 µM
- EC50 (UKE1, UKE1 cells): 9.11 µM
- EC50 (VM-CUB-1, VM-CUB1 cells): 4.45 µM
- EC50 (VMRC-LCD cells): 11 µM
- EC50 (VMRC-RCW cells): 11.9 µM
- EC50 (WM 266-4, WM-266-4 cells): 17.1 µM
- EC50 (WM983B, WM-983B cells): 9.66 µM
- EC50 (WM-88 cells): 13.6 µM
- EC50 (WM-115, WM-115 cells): 7.37 µM
- EC50 (WSU-WM cells): 7.7 µM
- EC50 (YAPC, YAPC cells): 11.5 µM
- AMAX (Hs 695T cells): -86.8488
- AMAX (Hs 936.T cells): -93.4541
- AMAX (HuG1-N cells): -87.0263
- AMAX (HuH-7 cells): -97.6516
- AMAX (IGR-37 cells): -77.0355
- AMAX (IGROV1 cells): -71.2355
- AMAX (IPC-298 cells): -72.365
- AMAX (Ishikawa cells): -88.4272
- AMAX (J82 cells): -35.798
- AMAX (JHH-4 cells): -90.0924
- AMAX (JHOS-2 cells): -45.7705
- AMAX (JHUEM-2 cells): -96.4199
- AMAX (JHUEM-3 cells): -54.8666
- AMAX (JL-1 cells): -68.6834
- AMAX (JVM-2 cells): -97.127
- AMAX (KARPAS-422 cells): -93.641
- AMAX (KATO III cells): -77.3764
- AMAX (KBM-7 cells): -97.1328
- AMAX (KE-97 cells): -93.3813
- AMAX (KMRC-1 cells): -75.0974
- AMAX (KP-1N cells): -76.285
- AMAX (KP-2 cells): -93.6503
- AMAX (KP-3 cells): -72.8527
- AMAX (KU-19-19 cells): -88.0441
- AMAX (KYSE-150 cells): -68.4693
- AMAX (KYSE-180 cells): -91.1186
- AMAX (Kasumi3 cells): -95.9336
- AMAX (L-363 cells): -92.1173
- AMAX (LC2/ad cells): -70.6199
- AMAX (LCLC-103H cells): -71.5681
- AMAX (MFE-280 cells): -75.2715
- AMAX (MM138 cells): -91.9111
- AMAX (MM415 cells): -83.1051
- AMAX (MM426 cells): -57.5258
- AMAX (MM485 cells): -82.1717
- AMAX (MM537 cells): -84.9338
- AMAX (MOLT-16 cells): -96.4687
- AMAX (MeWo cells): -73.0371
- AMAX (NB-1 cells): -97.6901
- AMAX (NCI-H82 cells): -96.2323
- AMAX (NCI-H146 cells): -95.028
- AMAX (NCI-H322 cells): -82.8728
- AMAX (NCI-H441 cells): -78.9188
- AMAX (NCI-H810 cells): -2.884
- AMAX (NCI-H841 cells): -94.3751
- AMAX (NCI-H1373 cells): -93.5484
- AMAX (NCI-H1568 cells): -98.9282
- AMAX (NCI-H1755 cells): -88.1389
- AMAX (NCI-H2023 cells): -87.7102
- AMAX (NCI-H2087 cells): -85.0078
- AMAX (NCI-H2452 cells): -48.2134
- AMAX (ONCO-DG-1 cells): -95.499
- AMAX (OUMS-23 cells): -91.7164
- AMAX (OV56 cells): -92.0115
- AMAX (P3HR-1 cells): -92.6521
- AMAX (P12-ICHIKAWA cells): -96.1728
- AMAX (PA-TU-8988T cells): -59.6796
- AMAX (PANC-1 cells): -78.7196
- AMAX (PC-3 cells): -66.4355
- AMAX (PE/CA-PJ49 cells): -89.0883
- AMAX (PF-382 cells): -96.9256
- AMAX (Panc 03.27 cells): -56.1495
- AMAX (Panc 04.03 cells): -74.9732
- AMAX (Panc 10.05 cells): -81.9961
- AMAX (RD-ES cells): -95.6768
- AMAX (RT-112 cells): -70.4236
- AMAX (SEM cells): -91.5844
- AMAX (SF-268 cells): -46.326
- AMAX (SK-ES-1 cells): -87.9534
- AMAX (SK-MEL-3 cells): -63.3656
